Test results: patent publication US20170368082A1, “FORMULATIONS OF BRINCIDOFOVIR” (priority 2016, published 2017)

Assays:
Format in all cases: physicochemical
[1] = Stability study I: physical degradation and benchmark stability study
Method: Testing of the chemical degradation was performed in an accelerated stability study setup applying heat as an accelerator/stressor. An Arrhenius analysis was carried out providing an API half-life and a degradation rate at lower temperatures. Physical stability was evaluated at the desired storage temperature (2-8° C.); a benchmark/reference condition was likewise included in the study. The setup of the study is specified below:
Physical degradation and benchmark stability study: 2-8° C., 25° C.
Physical degradation and benchmark stability study: initial, 14 and 28 days,
appearance, pH, c(BCV) recovery (HPLC), purity (HPLC), and liquid particle counting (physical degradation and benchmark stability study),
The results of the physical/benchmark stability for both tested formulations are summarized in Table 11 and Table 12, respectively. The purities of the formulations at different temperatures were determined by comparing chromatograms obtained at different temperatures and time points during the study.

[2] = Infusion vehicle (5% dextrose) compatibility; conditions: ambient
Method: A brincidofovir formulation comprising 10 mg/mL brincidofovir, 200 mM sodium phosphate, and 69 mM dextrose (pH=8.0) was diluted with the testing infusion vehicle (5% dextrose solution) to yield c(BCV)=0.5 and 1.0 mg/mL solutions. The diluted solutions were stored at ambient conditions, and samples were collected at initially at the beginning of the experiment, and after 2 h, 8 h, and 24 h and evaluated for appearance, pH, and recovery of c(BCV) (via HPLC). […] Detailed results of the study are summarized below (Table 18).
The Formulation 3a was diluted with the infusion vehicle (5% dextrose) solution to yield c(BCV)=0.5 mg/mL and 1.0 mg/mL solutions. The appearance, pH, and brincidofovir recovery (determined via HPLC) were evaluated at the time of preparing the test solution (to), and after 2 h (t2h), 8 h (t8h), and 24 h (t24h)

[3] = Preclinical infusion system assembly (rats) compatibility; conditions: 0.2 mg/mL (Test #1)
Method: The compatibility of the following brincidofovir formulations with an infusion system assembly for dosing of rats (consisting of a syringe, tether, catheter and syringe pump) was tested
a.) 0.2 mg/mL brincidofovir, 4 mM sodium phosphate, pH˜8.0, approx. 4.90% dextrose; b.) 1.5 mg/mL brincidofovir, 30 mM sodium phosphate, pH-8.0, approx. 4.25% dextrose.
Both solutions were prepared via dilution of the developed brincidofovir formulation (10 mg/mL brincidofovir, 200 mM sodium phosphate, pH=8.0) with a 5% dextrose solution. The testing procedure can be summarized as follows: • 1. The appearance, pH, and c(BCV) of the bulk testing solutions (0.2 mg/mL BCV, 4 mM sodium phosphate, pH-8.0, approx. 4.90% dextrose, and 1.5 mg/mL BCV, 30 mM sodium phosphate, pH˜8.0, approx. 4.25% dextrose were assessed pre-contact. • 2. Approximately 5 mL of the testing solution was drawn into a syringe which was then connected to the assembled infusion system (Vascular Access Harness (VAH) tether kit, the VAH port for rat jacket, and catheter). • 3. The infusion system was manually filled with the testing solution. Approximately 200 μL of the testing solution were pushed out of the infusion system and collected as an end-of-line sample (to) for the assessments of appearance and c(BCV). • 4. The syringe of the testing infusion system was mounted onto the syringe pump, and a flow rate was set to a flow of 1.2 mL/h ([…]) for a total dispensing volume of 2.4 mL (120 min). • 5. The entire flow-through was collected over the course of the experiment. At the respective time points (t10min, t105 min), end-of-line samples (approx. 200 μL) were collected for analysis. • 6. The pH of the bulk flow-through was measured at the end of the experiment (t120 min), since the volume of samples acquired from previous time points (200 μL) was too small for a standard pH measurement.

[4] = c(BCV) 0.5 mg/mL in 5% dextrose, 0 h
[5] = c(BCV) 0.5 mg/mL in 5% dextrose, 2 h
[6] = c(BCV) 0.5 mg/mL in 5% dextrose, 8 h
[7] = c(BCV) 0.5 mg/mL in 5% dextrose, 24 h
[8] = c(BCV) 1.0 mg/mL in 5% dextrose, 0 h
[9] = c(BCV) 1.0 mg/mL in 5% dextrose, 2 h
[10] = c(BCV) 1.0 mg/mL in 5% dextrose, 8 h
[11] = c(BCV) 1.0 mg/mL in 5% dextrose, 24 h

Question: With `CCCCCCCCCCCCCCCCOCCCOP(=O)(O)CO[C@H](CO)Cn1ccc(N)nc1=O` [Brincidofovir] as the compound, how does the “Degradation over one month” value ([1]; 2-8 °C) read?
Answer: Its value is 6%.

Question: And the “Degradation over one month” value ([1]; 25 °C)?
Answer: The value was 8%.

Question: And the Purity of brincidofovir ([1]; over one month)?
Answer: The Purity of brincidofovir was 99%.

Question: What about the Appearance [2, 4] of the same compound?
Answer: Its Appearance is “Clear, colorless”.

Question: What about the “Measured pH” value [2, 4] of the same compound?
Answer: Its value is 8.2.

Question: What about the “Observed c(BCV)” value [2, 4] of the same compound?
Answer: The value was 0.51 mg/mL.

Question: And the Appearance [2, 5]?
Answer: The Appearance was “Clear, colorless”.

Question: And the “Measured pH” value [2, 5]?
Answer: Its value is 8.3.

Question: And the “Observed c(BCV)” value [2, 5]?
Answer: The value was 0.51 mg/mL.

Question: And the Appearance [2, 6]?
Answer: Its Appearance is “Clear, colorless”.

Question: And the “Measured pH” value [2, 6]?
Answer: Its value is 8.2.

Question: What about the “Observed c(BCV)” value [2, 6] of the same compound?
Answer: Its value is 0.51 mg/mL.

Question: And the Appearance [2, 7]?
Answer: The Appearance was “Clear, colorless”.

Question: What about the “Measured pH” value [2, 7] of the same compound?
Answer: Its value is 8.2.

Question: What about the “Observed c(BCV)” value [2, 7] of the same compound?
Answer: Its value is 0.49 mg/mL.

Question: What about the Appearance [2, 8] of the same compound?
Answer: Its Appearance is “Clear, colorless”.

Question: And the “Measured pH” value [2, 8]?
Answer: Its value is 8.2.

Question: And the “Observed c(BCV)” value [2, 8]?
Answer: Its value is 1.0 mg/mL.

Question: And the Appearance [2, 9]?
Answer: The Appearance was “Clear, colorless”.

Question: What about the “Measured pH” value [2, 9] of the same compound?
Answer: The value was 8.2.

Question: And the “Observed c(BCV)” value [2, 9]?
Answer: The value was 1.0 mg/mL.

Question: What about the Appearance [2, 10] of the same compound?
Answer: Its Appearance is “Clear, colorless”.

Question: And the “Measured pH” value [2, 10]?
Answer: Its value is 8.2.

Question: And the “Observed c(BCV)” value [2, 10]?
Answer: Its value is 1.0 mg/mL.

Question: And the Appearance [2, 11]?
Answer: The Appearance was “Clear, colorless”.

Question: And the “Measured pH” value [2, 11]?
Answer: The value was 8.2.

Question: And the “Observed c(BCV)” value [2, 11]?
Answer: The value was 1.0 mg/mL.

Question: What about the Appearance ([3]; pre contact (bulk solution)) of the same compound?
Answer: The Appearance was “Clear, colorless”.

Question: What about the “Measured pH” value ([3]; pre contact (bulk solution)) of the same compound?
Answer: Its value is 8.0.

Question: And the “Observed c(BCV)” value ([3]; pre contact (bulk solution))?
Answer: Its value is 0.21 mg/mL.

Question: What about the Appearance ([3]; t0) of the same compound?
Answer: Its Appearance is “Clear, colorless”.

Question: What about the “Observed c(BCV)” value ([3]; t0) of the same compound?
Answer: Its value is 0.19 mg/mL.

Question: And the Appearance ([3]; t10 min)?
Answer: Its Appearance is “Clear, colorless”.

Question: What about the “Observed c(BCV)” value ([3]; t10 min) of the same compound?
Answer: The value was 0.16 mg/mL.

Question: And the Appearance ([3]; t105 min)?
Answer: The Appearance was “Clear, colorless”.

Question: What about the “Observed c(BCV)” value ([3]; t105 min) of the same compound?
Answer: Its value is 0.20 mg/mL.

Question: What about the Appearance ([3]; t120 min (bulk solution)) of the same compound?
Answer: The Appearance was “Clear, colorless”.

Question: What about the “Measured pH” value ([3]; t120 min (bulk solution)) of the same compound?
Answer: Its value is 8.0.
